IC50 data for 42 molecules are collected here from patent publication US8470889B2 (TRT Pharma Inc., priority 2008, dated 2013).

Each structure is given as a SMILES string. pIC50: −log10 of the molar value. Read-outs that look alike come from different tables or passages of the source.

The subject of data set [1] is LNCaP cells.
Data set [2] concerns PC-3 cells.
The subject of data set [3] is MDA PCa 2b cells.
Experimental: (§1) MDA PCa 2b was seeded at the same density in medium BRFF-HPC1 (Athena Enzyme Systems, Baltimore, Md., USA) supplemented with 20% FBS. After overnight incubation, the medium was changed to a fresh medium containing different concentrations of test compounds diluted from stock DMSO solution. The final concentration of DMSO is 0.5%. After 72 h of incubation with test compounds, 20 μL of 3-(4,5-dimethyl thiazol-2-yl)-2,5-diphenyltetrazolium bromide (MTT) solution (5 mg/mL in PBS) were added to each well and incubated further for 2 h. Next, the supernatant was aspirated and the MTT formazan formed by metabolically viable cells was dissolved in 100 μL of isopropanol. The plates were mixed for 30 min, and the absorbance was measured at 600 nm on a plate reader (FLUOstar OPTIMA, BMG LabTech). All samples were in triplicate. The IC50 values were determined from dose-response curves by nonlinear regression using PRISM v5.00 (GraphPad Software Inc, La Jolla, Calif., USA).
(§2) The in vitro cytotoxicity of 1-20 were evaluated by MTT assays in a panel of prostate cancer cell lines, including LNCaP, MDA PCa 2b, 22Rv1, C4-2B and PC-3.
Data set [4] has as its system 22Rv1 cells.
In data set [5] the test system is C4-2B cells.
Experimental: as §1, §2
For data set [6], the system named is LNCaP cells. Description: MTT cell growth inhibition, LNCaP.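 For all read-outs here: MTT formazan absorbance at 600 nm read after 72 h of compound exposure, IC50 fitted by nonlinear regression of dose-response curves, samples run in triplicate.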 As to conditions: for pIC50: read-out: IC50 in LNCaP cells.
Data set [7] concerns PC-3 cells. Kind of data set: MTT cell growth inhibition, PC-3.
Data set [8] concerns 22Rv1 cells. Kind of data set: MTT cell growth inhibition, 22Rv1. The note with it: read-out: Cellular IC50 (μM) 22Rv1, MTT.
The subject of data set [9] is C4-2B cells. Description: MTT cell growth inhibition, C4-2B.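 Note: cells treated with a dilution series for 72 h, then MTT added and absorbance read at 600 nm, IC50 fitted from dose-response curves by nonlinear regression.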
Experimental: as §1, §2
Setting [10] is: read-out: Cellular IC50 (μM) PC3, Table 8.
Setting [11] is: read-out: Cellular IC50 (μM) LNCaP, Table 8.
The mark [12] stands for this setting: read-out: Cellular IC50 (μM) C4-2B, Table 8.
[13] abbreviates: read-out: Cellular IC50 (μM) PC-3, Table 9.
Where [14] appears, read: read-out: Cellular IC50 (μM) LNCaP, Table 9.
Where [15] appears, read: read-out: Cellular IC50 (μM) C4-2B, Table 9.

As usually defined, the pIC50 is −log10 of the IC50, conventionally taken in molar units. As to `COc1ccc(/C=C/C(=O)/C=C/C2=C(C)CCCC2(C)C)cc1O` [Compound B2], the pIC50 was 5.00 in data set [1] and 4.43 in data set [2].
As to `COc1cc(/C=C/C(=O)/C=C/C2=C(C)CCCC2(C)C)ccc1O` [Compound B1], the pIC50 in data set [1] was 5.02; in data set [2] it was 4.67.
In the case of `CC1=C(/C=C/C(=O)/C=C/c2ccccc2C(F)(F)F)C(C)(C)CCC1O` (racemic) [Compound B24], the pIC50 in data set [1] was 5.54; in data set [3] it was 5.54; in [4], 5.64; in data set [2] it was 5.43.
As for `CC1=C(/C=C/C(=O)/C=C/c2ccc(F)cc2)C(C)(C)CCC1O` (racemic) [Compound B31], the pIC50 in data set [1] was 5.41; in [4] it was 5.12; in data set [5], 5.40; in data set [2], 5.21.
`CC1=C(/C=C/C(=O)/C=C/c2cccc([N+](=O)[O-])c2)C(C)(C)CCC1O` (racemic) [Compound B40]: the pIC50 in data set [1] was 5.70; in [3], 5.22; in data set [4], 5.72; in [2], 5.24.
With `CC1=C(/C=C/C(=O)/C=C/c2ccc(C(F)(F)F)cc2F)C(C)(C)CCC1O` (racemic) [Compound B35], the negative logarithm of the IC50 (pIC50) in data set [1] is 5.59; in [4], 5.42; in data set [2] it was 5.34.
For `CC1=C(/C=C/C(=O)/C=C/c2cccc(C)c2)C(C)(C)CCC1` [Compound B14], the values for the pIC50 in data set [1] and in data set [2] were 4.75 and 4.46, respectively.
For `CC1=C(/C=C/C(=O)/C=C/c2ccc(F)cc2)C(C)(C)CCC1` [Compound B10], the values for the negative-log IC50 (pIC50) in [1] and in data set [2] were 5.14 and 4.59, respectively.
Turning to `CC1=C(/C=C/C(=O)/C=C/c2ccccc2)C(C)(C)CCC1O` (racemic) [Compound B23], the pIC50 in [1] was 5.24; in data set [3], 4.90; in data set [4] it was 5.10; in data set [5] it was 5.74; in data set [2], 4.81.
Turning to `COc1ccc(/C=C/C(=O)/C=C/C2=C(C)CCCC2(C)C)cc1OC` [Compound B3], the results for the pIC50 in data set [1] and in data set [2] were 5.02 and 4.38, respectively.
Consider `CCOC(OCC)c1cccc(/C=C/C(=O)/C=C/C2=C(C)C(O)CCC2(C)C)c1` (stereo not shown) [Compound B43], for which the negative-log IC50 (pIC50) was 5.74 in [1] and 5.33 in data set [2].
On to `CC1=C(/C=C/C(=O)/C=C/c2cc(C(F)(F)F)ccc2F)C(C)(C)CCC1O` (racemic) [Compound B36], for which the negative logarithm of the IC50 (pIC50) in data set [1] was 5.77; in data set [4], 5.70; in [2] it was 5.44.
Turning to `CC1=CCCC(C)(C)C1/C=C/C(=O)/C=C/c1ccccc1C(F)(F)F` (racemic) [Compound B16], the negative logarithm of the IC50 (pIC50) in data set [1] is 4.65; in data set [4] it was 4.74; in [5], 4.93; in [2], 4.72.
For `CC1=C(/C=C/C(=O)/C=C/c2ccc(C(F)(F)F)cc2)C(C)(C)CCC1O` (racemic) [Compound B26], the pIC50 was 5.52 in data set [1], 5.03 in data set [3], 5.49 in data set [4] and 4.99 in data set [2].
On to `CC1=C(/C=C/C(=O)/C=C/c2cccc(F)c2)C(C)(C)CCC1O` (racemic) [Compound B30], for which the figures for the pIC50 in data set [1], in data set [4] and in data set [2] were 5.36, 5.25 and 4.80, respectively.
With `COc1cccc(/C=C/C(=O)/C=C/C2=C(C)C(O)CCC2(C)C)c1` (racemic) [Compound B42], the negative-log IC50 (pIC50) was 5.31 in data set [1] and 5.19 in data set [2].
`CC1=C(/C=C/C(=O)/C=C/c2cc(F)cc(C(F)(F)F)c2)C(C)(C)CCC1O` (racemic) [Compound B33]: the pIC50 in [1] was 5.96; in data set [4] it was 5.62; in data set [2] it was 5.52.
For the molecule `CC1=C(/C=C/C(=O)/C=C/c2cc(C(F)(F)F)cc(C(F)(F)F)c2)C(C)(C)CCC1` [Compound B7], the negative logarithm of the IC50 (pIC50) was 5.06 in [1] and 5.14 in [2].
Take `CC1=C(/C=C/C(=O)/C=C/c2cc([N+](=O)[O-])ccc2Cl)C(C)(C)CCC1` [Compound B13]: the values for the negative-log IC50 (pIC50) in data set [1] and in data set [2] were 5.38 and 4.72, respectively.
As for `CC1=C(/C=C/C(=O)/C=C/c2cccc(C#N)c2)C(C)(C)CCC1O` (racemic) [Compound B39], the pIC50 in data set [1] was 5.74; in data set [4], 5.66; in data set [2], 5.14.
With `CC1=C(/C=C/C(=O)/C=C/c2ccc(O)c([N+](=O)[O-])c2)C(C)(C)CCC1` [Compound B12], the negative-log IC50 (pIC50) in [1] is 4.57; in [2] it was < 4.30.
As to `CC1=C(/C=C/C(=O)/C=C/c2ccccc2F)C(C)(C)CCC1O` (racemic) [Compound B29], the results for the negative-log IC50 (pIC50) in data set [1], in [4] and in [2] were 5.54, 5.48 and 4.98, respectively.
Consider `CC1=C(/C=C/C(=O)/C=C/c2ccccc2F)C(C)(C)CCC1` [Compound B8], for which the results for the pIC50 in data set [1] and in data set [2] were 4.97 and 4.66, respectively.
Turning to `CC1=C(/C=C/C(=O)/C=C/c2cccc(C(F)(F)F)c2)C(C)(C)CCC1` [Compound B5], the pIC50 in data set [2] was 5.11; in data set [6], 5.55.
Regarding `CC1=C(/C=C/C(=O)/C=C/c2cc(C(F)(F)F)cc(C(F)(F)F)c2)C(C)(C)CCC1O` (racemic) [Compound B28], the pIC50 is 5.68 in data set [1], 5.46 in data set [3], 5.66 in data set [4] and 5.15 in [2].
Regarding `CC1=C(/C=C/C(=O)/C=C/c2cccc([N+](=O)[O-])c2)C(C)(C)CCC1` [Compound B11], the results for the pIC50 in [1] and in data set [2] were 5.57 and 5.00, respectively.
As to `CC1=C(/C=C/C(=O)/C=C/c2cc(C(F)(F)F)ccc2C(F)(F)F)C(C)(C)CCC1O` (racemic) [Compound B27], the negative-log IC50 (pIC50) is 5.49 in [1], 5.40 in [3] and 5.72 in data set [2].
Take `CC1=CCCC(C)(C)C1/C=C/C(=O)/C=C/c1cccc(C)c1` (racemic) [Compound B22]: the negative logarithm of the IC50 (pIC50) was 4.91 in [1], 4.82 in [4], 5.21 in [5] and 5.23 in data set [2].
Take `CC1=C(/C=C/C(=O)/C=C/c2ccc(-c3ccccc3)cc2)C(C)(C)CCC1` [Compound B15]: the figures for the pIC50 in data set [1] and in data set [2] were 4.83 and 4.32, respectively.
Regarding `CC1=C(/C=C/C(=O)/C=C/c2cccc(F)c2)C(C)(C)CCC1` [Compound B9], the pIC50 in [2] is 4.73; in [6], 4.89.
As to `CC1=C(/C=C/C(=O)/C=C/c2c(F)cccc2C(F)(F)F)C(C)(C)CCC1O` (racemic) [Compound B37], the negative logarithm of the IC50 (pIC50) in data set [1] was 5.31; in data set [4], 5.05; in data set [2], 5.06.
As to `CC1=C(/C=C/C(=O)/C=C/c2cccc(C)c2)C(C)(C)CCC1O` (racemic) [Compound B38], the negative-log IC50 (pIC50) was 5.39 in data set [1], 4.72 in [3], 5.36 in data set [4] and 5.21 in data set [2].
For the molecule `CC1=C(/C=C/C(=O)/C=C/c2ccc([N+](=O)[O-])cc2)C(C)(C)CCC1O` (racemic) [Compound B41], the negative logarithm of the IC50 (pIC50) in data set [1] was 5.38; in [4], 5.39; in [2], 4.82.
For orientation: IC50 means the midpoint of a concentration-inhibition curve. On to `CC1=C(/C=C/C(=O)/C=C/c2ccc(N(CCO)CCO)cc2)C(C)(C)CCC1O` (stereo not shown) [Compound B62], for which the half-maximal inhibitory concentration (IC50) in [7] (setting [10]) is 6.9 µM; in [6] (setting [11]), 1.4 µM; in [8] (Table 8), 4.3 µM; in [9] (setting [12]), 1.7 µM.
As for `CC1=C(/C=C/C(=O)/C=C/c2ccc(C(F)(F)F)cc2)C(C)(C)CCC1` [Compound B6], the pIC50 in data set [1] is 5.04; in [2], 4.92.
In the same order, the values of `CC1=C(/C=C/C(=O)/C=C/c2cccc(C(F)(F)F)c2F)C(C)(C)CCC1O` (racemic) [Compound B34] are 5.96 and 5.68.
Consider `CCOc1ccc(/C=C/C(=O)/C=C/C2=C(C)C(O)CCC2(C)C)cc1OCC` (stereo not shown) [Compound B71], for which the concentration for half-maximal inhibition (IC50) in data set [7] (setting [10]) is 36.1 µM; in data set [6] (setting [11]), 5.5 µM; in [8] (Table 8), 8.6 µM; in data set [9] (setting [12]), 10.5 µM.
For `CC1=C(/C=C/C(=O)/C=C/c2ccccc2C)C(C)(C)CCC1O` (stereo not shown) [Compound B64] the same measures were 7.6 µM, 2.5 µM, 4.6 µM and 2.7 µM.
Turning to `Cc1cccc2c(/C=C/C(=O)/C=C/C3=CC(O)CCC3(C)C)c[nH]c12` (stereo not shown) [Compound B86], the IC50 in data set [7] (setting [13]) is 6.4 µM; in data set [6] (setting [14]), 2.6 µM; in data set [8] (Table 9), 5.3 µM; in data set [9] (setting [15]), 3.6 µM.
Consider `COc1cc(/C=C/C(=O)/C(=C/c2ccc3ccccc3n2)C(=O)/C=C/C2=C(C)CCCC2(C)C)ccc1O` [Compound 20], for which the concentration for half-maximal inhibition (IC50) in data set [7] (read-out: Cellular IC50 (μM) PC-3, Table 2, 72 h, max tested 50 μM (β-ionone 150 μM)) was found to be 15.2 µM; in data set [6] (read-out: Cellular IC50 (μM) LNCaP, Table 2, 72 h), 8.5 µM; in data set [8] (Table 2, 72 h) it was 5.1 µM; in data set [9] (read-out: Cellular IC50 (μM) C4-2B, Table 2, 72 h) it was 5.3 µM.
For `CC1(C)CCC(O)C=C1/C=C/C(=O)/C=C/c1ccnc2ccccc12` (stereo not shown) [Compound B96], the IC50 in [7] (setting [13]) is 2.2 µM; in data set [6] (setting [14]) it was 1.5 µM; in [8] (Table 9), 1.2 µM; in data set [9] (setting [15]) it was 1.5 µM.
On to `CCOc1ccc(/C=C/C(=O)/C=C/C2=C(C)CCCC2(C)C)cc1OCC` [Compound B4], for which the pIC50 in data set [1] was 5.09; in data set [2] it was < 4.30.
